Assay results reported in patent US10780067B2, “Endoxifen for local transdermal therapy to the breast” (Northwestern University, priority 2016, dated 2020).

How the values were obtained:
[1] = Plasma, breast adipose tissue and NAF concentrations of tamoxifen and its metabolites (LC-MS/MS), presurgical trial; type: in vivo, human; details: in vivo
Description: All participants provided informed consent. Baseline assessments included a history and physical, explanation of gel application, completion of the Breast Cancer Prevention Trial Eight Symptom Scale (BESS) questionnaire, collection of a venous blood sample, and collection of nipple aspirate fluid (NAF) from NAF yielders. […] Treatment began within 5 days post-randomization and ended on the day prior to surgical resection. Participants were instructed to apply the gel to the entire skin envelope of each breast each morning, after a shower. Duration of therapy was 6-10 weeks. Compliance was assessed through participant diaries, counts of returned pills and of returned gel canisters. Participants who took at least 80% of the prescribed dose were considered compliant.
Assessments similar to those performed at baseline were repeated on the day prior to, or on the morning of surgery. During surgery, breast adipose tissue from the surgical sample was snap frozen and stored at −80° C. for measurement of tamoxifen and metabolites. The samples were obtained from a location adjacent to the DCIS lesion to provide uniformity between participants undergoing breast conservation and mastectomy. The paraffin block of the core and excision samples were acquired by the recruiting institution and 10 sections from each specimen were submitted to the NU Pathology Core Facility. The sections were cut in batches (with pre- and post-treatment samples in the same batch), shipped cold, and processed for immunohistochemistry within four weeks.
(Z)-tamoxifen, (Z)-NDT, (E) and (Z)-4-OHT, and (Z)-endoxifen were measured by liquid chromatography-tandem mass spectrometry with a turbo ion spray interface operating in positive mode (API 3000; AB SCIEX, Foster City, Calif.). […] For analysis of NAF, samples were collected in a capillary tube and diluted with 200 μL of phosphate buffered saline; 100 μL of the diluted NAF sample was used for analysis. Breast adipose tissue samples, 25 mg, were minced and treated with 125 μL of […] and extracted as described above.
Retention times for (Z)-tamoxifen, (Z)-NDT, (Z)-4-OHT, (E)-4-OHT and (Z)-endoxifen were 7.3, 6.8, 5.1, 4.7 and 4.5 min, respectively. […] In three participants, matched samples were not available: breast adipose tissue was not collected in two, and the plasma sample was missing in one.
Since the fraction of E and Z isoforms of 4-OHT was of particular interest, we used an additional validated method to study plasma concentrations of these metabolites in a different laboratory (Eurofins Medinet, Chantilly, Va.): Plasma from blood samples collected in lithium-heparin tubes was frozen at −20° C., shipped in batches on dry ice to them Eurofins Medinet central laboratory; LC-MS/MS was used for the simultaneous determination of (E) 4-OHT and (Z) 4-OHT, with a lower limit of quantitation (LOQ) of 10 pg/mL and upper LOQ of 10,000 pg/mL. Eurofins Medinet developed and validated them method for BHR Pharma, in accordance with the FDA Guidance on Bioanalytical Method Validation.

[2] = alcoholic solution of ENX 0.2 mg/mL with 0.5% oleic acid; cited from earlier work
ERα = molecular target: T1, ERα (Homo sapiens, UniProt P03372); details: cited from earlier work
T1 sequence (P03372 1-595): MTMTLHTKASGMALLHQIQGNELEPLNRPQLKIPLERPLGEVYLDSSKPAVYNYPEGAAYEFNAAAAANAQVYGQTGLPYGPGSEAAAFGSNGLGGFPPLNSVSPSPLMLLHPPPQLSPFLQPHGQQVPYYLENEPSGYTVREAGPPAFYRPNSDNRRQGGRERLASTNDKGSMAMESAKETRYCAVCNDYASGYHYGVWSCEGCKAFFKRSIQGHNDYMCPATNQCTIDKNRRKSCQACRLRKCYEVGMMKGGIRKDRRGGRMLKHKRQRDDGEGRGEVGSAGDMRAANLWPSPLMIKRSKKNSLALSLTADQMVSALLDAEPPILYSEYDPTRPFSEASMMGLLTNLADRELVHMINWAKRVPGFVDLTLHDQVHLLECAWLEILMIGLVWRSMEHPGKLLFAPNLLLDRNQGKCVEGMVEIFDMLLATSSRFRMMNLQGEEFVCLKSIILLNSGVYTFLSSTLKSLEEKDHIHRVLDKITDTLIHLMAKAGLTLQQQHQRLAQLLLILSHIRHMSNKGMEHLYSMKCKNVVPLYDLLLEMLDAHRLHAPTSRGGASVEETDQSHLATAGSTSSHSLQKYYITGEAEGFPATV

ERβ = ERβ (Homo sapiens, UniProt Q92731); details: cited from earlier work
Sequence of ERβ (Q92731 whole entry): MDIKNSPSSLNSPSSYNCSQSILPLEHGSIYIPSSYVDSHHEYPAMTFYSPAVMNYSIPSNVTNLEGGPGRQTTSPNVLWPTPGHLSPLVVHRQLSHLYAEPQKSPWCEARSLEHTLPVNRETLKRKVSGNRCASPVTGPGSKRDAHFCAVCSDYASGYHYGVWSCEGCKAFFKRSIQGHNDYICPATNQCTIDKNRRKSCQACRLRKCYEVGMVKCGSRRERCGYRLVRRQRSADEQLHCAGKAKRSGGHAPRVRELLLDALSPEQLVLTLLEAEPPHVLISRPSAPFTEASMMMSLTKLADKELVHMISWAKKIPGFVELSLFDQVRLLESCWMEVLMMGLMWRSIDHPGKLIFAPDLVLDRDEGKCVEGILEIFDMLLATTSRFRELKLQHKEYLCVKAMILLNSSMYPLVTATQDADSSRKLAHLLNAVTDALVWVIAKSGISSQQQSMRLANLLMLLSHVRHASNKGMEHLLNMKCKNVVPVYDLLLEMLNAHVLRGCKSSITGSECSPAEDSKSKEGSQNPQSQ

MCF7 xenograft [3] = details: MCF7 xenograft bearing mice, cited from earlier work
MCF7 xenograft [4] = details: simulation using human PK; cited from earlier work
[5] = oral dose of 160 mg daily; cited from earlier work
MCF-7 xenograft = details: dose of 2-8 mg/kg; cited from earlier work
[6] = female, human, in vivo, 72 h
Description: (§1) Nonpregnant women scheduled for mastectomy to prevent or treat breast cancer were recruited through the Lynn Sage Comprehensive Breast Center of Northwestern Medicine. All participants were randomized to patch application to one surgical breast (per participant) or the abdominal skin. The diclofenac patch (Flector® patch, 10 cm×14 cm) is a semi-occlusive, bioadhesive patch containing 129.7 mg of diclofenac acid. After baseline evaluation, the participants were instructed on site of patch application and to replace patch every 12 h over 72 h prior to surgery.
(§2) The breast group wore the patch over the upper outer breast, with the lower inner corner of the patch at the level of the nipple (FIG. 3b). The abdominal group wore the patch on the lower abdomen on the side opposite the planned mastectomy (FIG. 3a). Participants were assessed for baseline signs/symptoms and then by telephone the second day of the treatment and on the day of surgery. All adverse events were coded using the NCI Common Terminology Criteria for Adverse Events version 4.0.
(§3) On the day of surgery, the transdermal patch was removed in the operating room prior to anesthesia and 30 mL venous blood was collected with anticoagulant K2EDTA (BD Vacutainer®, BD Hemogard™ product no. 366643). Tissue samples from the mastectomy specimen were obtained from eight predetermined locations of one breast per participant (FIG. 3b), four central/periareolar and four peripheral samples 5 cm away, at 12, 3, 6, and 9 O'clock. Each tissue sample was weighed and snap-frozen in liquid nitrogen and kept in −80° C. until analysis.
(§4) Formalin-fixed, paraffin-embedded (FFPE) samples were taken from locations adjacent to the drug assay samples, for histological evaluation of tissue composition, and were available from all subjects.
(§5) The concentrations of all the drugs used in rats and humans were determined by liquid chromatography-tandem mass spectroscopy (API 3000; AB SCIEX, Foster City, Calif., USA). […] The mobile phase was A: 0.1% formic acid in water (v/v) and B: 0.1% formic acid in acetonitrile (v/v). […] The lowest limits of quantification (LLOQ) were as follow: tamoxifen and N-desmethyl tamoxifen (NDT) (plasma 10 ng/mL; tissue 40 ng/g); 4-OHT and endoxifen (plasma 0.5 ng/mL; tissue 2 ng/g); telapristone and N-desmethyl telapristone (d-telapristone) (plasma 1 ng/mL; tissue 1.5 ng/g); and diclofenac (plasma 0.5 ng/mL; tissue 2 ng/g).
(§6) The medians and IQR's were reported for diclofenac concentrations by breast region and patch groups (Table 9). To compare breast concentrations by site of patch application, we replaced non-detectable values with “zero” and considered the median concentration from eight samples as the representative breast concentration per individual for statistical purposes. The Wilcoxon rank-sum test was used to assess median concentration differences between patch groups, among regions of the breast, and by menopausal status within each treatment group.
(§7) Diclofenac was determined by LC-MS/MS (API 3000; AB SCIEX, Foster City, Calif.).

clinical = details: female, human, in vivo
Description: as §1, §2, §3, §4, §5, §6, §7

4-hydroxytamoxifen [4-OHT gel]
NAF concentration of NDT, individual participants [1]: undetectable | NAF concentration of endoxifen [1]: undetectable | NAF concentration of tamoxifen, individual participants [1]: undetectable | participants with 4-OHT detectable in breast tissue [1]: 9 of 10 | participants with 4-OHT detectable in plasma [1]: 5 | breast adipose tissue concentrations of (Z) 4-OHT (discussion) ([1]; po): over 5 ng/mg

CC/C(=C(\c1ccc(O)cc1)c1ccc(OCCNC)cc1)c1ccccc1 [Endoxifen, N-desmethyl-4-hydroxytamoxifen]
in vitro human skin penetration [2]: penetrates human skin efficiently | binding affinity for ERα relative to TAM (ERα): 25 fold | binding affinity for ERβ relative to TAM (ERβ): 56 fold | Cstasis (plasma ENX showing 100% TGI) (MCF7 xenograft [3]): 53 nM | KC50 of plasma ENX (MCF7 xenograft [3]; tumor growth inhibition, oral ENX): 14 nM | TGI at day 21, 0.5 mg/day oral (MCF7 xenograft [4]): 67% | TGI at day 21, 1 mg/day oral (MCF7 xenograft [4]): 87% | TGI at day 21, 4 mg/day oral (MCF7 xenograft [4]): 97% | MTT [5]: not reached

CC/C(=C(\c1ccc(O)cc1)c1ccc(OCCNC)cc1)c1ccccc1.O=C(O)CC(O)(CC(=O)O)C(=O)O [ENX citrate]
efficacy against MCF-7 xenograft model (MCF-7 xenograft): shows efficacy

O=C(O)Cc1ccccc1Nc1c(Cl)cccc1Cl [diclofenac]
diclofenac breast concentration, abdominal patch, All locations [6]: 0.13 (0.00, 0.37) ng/g tissue | diclofenac breast concentration, abdominal patch, sampling location 6 [6]: 0.04 (0.00, 0.48) ng/g tissue | diclofenac breast concentration, breast patch, All locations [6]: 0.77 (0.23, 2.97) ng/g tissue | diclofenac breast concentration, breast patch, sampling location 6 [6]: 0.31 (0.00, 1.23) ng/g tissue | diclofenac plasma concentration, abdominal patch [6]: 1.06 (0.81, 1.88) ng/mL | diclofenac plasma concentration, breast patch [6]: 1.02 (0.71, 1.78) ng/mL | tissue samples with detectable diclofenac, abdominal group [6]: 58% | tissue samples with detectable diclofenac, breast group [6]: 79% | concentration at 72 h (clinical; diclofenac breast concentration, abdominal patch, All locations): 0.13 ng/g | concentration at 72 h (clinical; diclofenac breast concentration, abdominal patch, sampling location 1): 0 ng/g | concentration at 72 h (clinical; diclofenac breast concentration, abdominal patch, sampling location 2): 0.18 ng/g | concentration at 72 h (clinical; diclofenac breast concentration, abdominal patch, sampling location 3): 0.2 ng/g | concentration at 72 h (clinical; diclofenac breast concentration, abdominal patch, sampling location 4): 0.19 ng/g | concentration at 72 h (clinical; diclofenac breast concentration, abdominal patch, sampling location 5): 0.11 ng/g | concentration at 72 h (clinical; diclofenac breast concentration, abdominal patch, sampling location 6): 0.04 ng/g | concentration at 72 h (clinical; diclofenac breast concentration, abdominal patch, sampling location 7): 0.14 ng/g | concentration at 72 h (clinical; diclofenac breast concentration, abdominal patch, sampling location 8): 0.08 ng/g | concentration at 72 h (clinical; diclofenac breast concentration, breast patch, All locations): 0.77 ng/g | concentration at 72 h (clinical; diclofenac breast concentration, breast patch, sampling location 1): 0.63 ng/g | concentration at 72 h (clinical; diclofenac breast concentration, breast patch, sampling location 2): 0.64 ng/g | concentration at 72 h (clinical; diclofenac breast concentration, breast patch, sampling location 3): 0.48 ng/g | concentration at 72 h (clinical; diclofenac breast concentration, breast patch, sampling location 4): 1.64 ng/g | concentration at 72 h (clinical; diclofenac breast concentration, breast patch, sampling location 5): 1.98 ng/g | concentration at 72 h (clinical; diclofenac breast concentration, breast patch, sampling location 6): 0.31 ng/g | concentration at 72 h (clinical; diclofenac breast concentration, breast patch, sampling location 7): 1.12 ng/g | concentration at 72 h (clinical; diclofenac breast concentration, breast patch, sampling location 8): 0.58 ng/g | concentration at 72 h (clinical; diclofenac plasma concentration, abdominal patch): 1.06 ng/mL | concentration at 72 h (clinical; diclofenac plasma concentration, breast patch): 1.02 ng/mL | concentration at 72 h (clinical; median breast concentration of diclofenac with IQR, fatty samples): 8.71 ng/g | concentration at 72 h (clinical; median breast concentration of diclofenac with IQR, fibrous samples): 0.19 ng/g | concentration at 72 h (clinical; median breast concentration of diclofenac with IQR, mixed samples): 0.52 ng/g | concentration at 72 h (clinical; median diclofenac breast concentration, abdominal group, medium-sized breasts): 0.21 ng/g | concentration at 72 h (clinical; median diclofenac breast concentration, abdominal group, small breasts): 0.6 ng/g | concentration at 72 h (clinical; median diclofenac breast concentration, breast group, medium-sized breasts): 1.31 ng/g | concentration at 72 h (clinical; median diclofenac breast concentration, breast group, small breasts): 1.12 ng/g | concentration at 72 h (clinical; median diclofenac concentration, central locations (1 through 4), abdominal group): 0.85 ng/g | concentration at 72 h (clinical; median diclofenac concentration, central locations (1 through 4), breast group): 4.91 ng/g | concentration at 72 h (clinical; median diclofenac concentration, peripheral locations (5 through 8), abdominal group): 0.75 ng/g | concentration at 72 h (clinical; median diclofenac concentration, peripheral locations (5 through 8), breast group): 9.92 ng/g | concentration at 72 h (clinical; range of diclofenac concentrations in tissue samples of three women, abdominal group): 1.2 to 4.8 ng/g
